In patent publication US20260207602A1, “EGFR INHIBITORS” (Blueprint Medicines Corporation, priority 2022, published 2026) one finds IC50 data, which are given here for 22 compounds.

Test [1] addresses intracellular phosphorylation of EGFR (Tyr1068) in PC-9 cells (Homo sapiens, UniProt P00533, DEL746-750). Kind of test: PC-9 pEGFR AlphaLISA assay. Type of test: cell-based. Particulars: 4 hours incubation, read-out: Phos EGFR PC9 IC50. The method, then: PC-9/A431 pEGFR AlphaLISA Assays
Inhibitory effects of compounds were evaluated in cellular assays that measure level of intracellular phosphorylation of EGFR in PC-9 (ECACC, #90071810, Milipore/Sigma) and A431 cell lines (ATCC, CRL-1555) using AlphaLISA sureFire ultra p-EGFR (Tyr1068) assay kit (PerkinElmer, ALSU-PEGFR-A50K). PC-9 cells were seeded at 3.125×10^5 cells/ml in 40 μL phenol-free DMEM supplemented with 10% FBS per well of a 384 well plate (Corning, 3764), while A431 were seeded at […] in 40 μL in phenol-free DMEM with 0.5% FBS. Cells were allowed to adhere overnight at 37° C./5% CO2. On the next day, compounds were transferred at 4-fold, 10-point serial dilution from compound source plate to cell plates using liquid handler Echo550 and were incubated at 37° C./5% CO2 for 4 hours. A431 cells were stimulated prior harvesting for 10 min with EGF at final concentration of 30 ng/ml in the incubator. Medium was removed from the plates and cells were lysed with 10 μL of 1× AlphaLISA lysis buffer (supplemented with 1× protease/phosphatase inhibitor cocktail) followed by shaking at 600 rpm for 30 minutes at room temperature. Lysates were transferred to Optiplate (Apricot designs) and 5 ul of 1× acceptor bead mix (prepared just before use) was added to each well followed by incubation at room temperature for 1.5-2 h in dark. Then 5 μL of freshly-made donor bead mix is added to each well under subdued lighting or green filters, was mixed well on the shaker and the plate was sealed and left for an overnight incubation at room temperature in dark. On the next day, the plate was read the Envision using standard AlphaLisa settings. Percent of pEGFR inhibition was plotted against log concentration of compounds to generate IC50 values.
(In general: In Alpha technology, singlet oxygen from a donor bead excites a nearby acceptor bead.)

Another test deals with T1, EGFR (d746-750) (Homo sapiens, UniProt P00533, DEL746-750).
T1 construct: purchased SignalChem E10-122JG
T1 sequence (P00533 with tags, fused parts or gaps DEL746-750 limits assumed): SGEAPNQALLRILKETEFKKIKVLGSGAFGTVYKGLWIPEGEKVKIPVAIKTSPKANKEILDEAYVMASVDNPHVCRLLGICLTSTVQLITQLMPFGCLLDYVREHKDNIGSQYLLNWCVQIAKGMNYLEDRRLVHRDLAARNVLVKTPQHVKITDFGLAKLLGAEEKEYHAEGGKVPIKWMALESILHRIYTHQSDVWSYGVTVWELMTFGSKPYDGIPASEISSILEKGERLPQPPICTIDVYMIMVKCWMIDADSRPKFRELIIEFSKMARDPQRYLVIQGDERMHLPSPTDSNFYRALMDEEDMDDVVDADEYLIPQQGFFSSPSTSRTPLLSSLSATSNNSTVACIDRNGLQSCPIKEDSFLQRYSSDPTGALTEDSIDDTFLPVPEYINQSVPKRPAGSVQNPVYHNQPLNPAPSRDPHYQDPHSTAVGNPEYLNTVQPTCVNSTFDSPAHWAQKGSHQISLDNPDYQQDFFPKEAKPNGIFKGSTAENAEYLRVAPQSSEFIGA
Kind of test: Biochemical EGFR inhibition assay (Caliper mobility shift), EGFR (d746-750). Conditions: biochemical Caliper mobility shift assay, EGFR Exon 19-del enzyme; read-out: Enz EGFR Exon 19-del IC50. The method, then: Inhibitory effects of the compounds of the disclosure were measured in biochemical assays that measure the phosphorylation activity of EGFR enzyme phosphorylates 2.5 micromolar 5-FAM-[…]-CONH2 peptide substrate (ProfilerPro Kinase Peptide Substrate 22, PerkinElmer, Part #760366) in the presence of adenosine-5′-triphosphate (ATP) and varying concentrations of the test compound in 100 mM 2-[4-(2-hydroxyethyl)piperazin-1-yl]ethanesulfonic acid (HEPES), pH 7.5, 10 mM MgCl2, 0.015% Brij-35, 1 mM dithiothreitol (DTT), 1.0% dimehylsulfoxide (DMSO). Assays were performed at 1.0 mM ATP or at ATP Km of the EGFR enzymes. Reactions proceeded until between 10% to 20% total peptides were phosphorylated at room temperature (25° C.) and were terminated with 35 mM 2,2′,2″,2′″-(ethane-1,2-diyldinitrilo)tetraacetic acid (EDTA). Product was detected using the Caliper mobility shift detection method where the phosphorylated peptide (product) and substrate were electrophoretically separated and measured. Percent activity was plotted against log concentration of compound and points to generate an apparent IC50. The following enzyme forms of • EGFR were examples that were used in these assays: • EGFR WT (SignalChem, E10-112G) • EGFR L858R (SignalChem, E10-122BG) • EGFR (d746-750) (SignalChem, E10-122JG) • EGFR L858R C797S (SignalChem, E10-122ZG) • EGFR (d746-750) C797S (SignalChem, E10-122TG)

The target of a further test is T2, EGFR L858R (Homo sapiens, UniProt P00533, L858R).
T2 construct: purchased SignalChem E10-122BG
T2 sequence (P00533 25-1210 L858R): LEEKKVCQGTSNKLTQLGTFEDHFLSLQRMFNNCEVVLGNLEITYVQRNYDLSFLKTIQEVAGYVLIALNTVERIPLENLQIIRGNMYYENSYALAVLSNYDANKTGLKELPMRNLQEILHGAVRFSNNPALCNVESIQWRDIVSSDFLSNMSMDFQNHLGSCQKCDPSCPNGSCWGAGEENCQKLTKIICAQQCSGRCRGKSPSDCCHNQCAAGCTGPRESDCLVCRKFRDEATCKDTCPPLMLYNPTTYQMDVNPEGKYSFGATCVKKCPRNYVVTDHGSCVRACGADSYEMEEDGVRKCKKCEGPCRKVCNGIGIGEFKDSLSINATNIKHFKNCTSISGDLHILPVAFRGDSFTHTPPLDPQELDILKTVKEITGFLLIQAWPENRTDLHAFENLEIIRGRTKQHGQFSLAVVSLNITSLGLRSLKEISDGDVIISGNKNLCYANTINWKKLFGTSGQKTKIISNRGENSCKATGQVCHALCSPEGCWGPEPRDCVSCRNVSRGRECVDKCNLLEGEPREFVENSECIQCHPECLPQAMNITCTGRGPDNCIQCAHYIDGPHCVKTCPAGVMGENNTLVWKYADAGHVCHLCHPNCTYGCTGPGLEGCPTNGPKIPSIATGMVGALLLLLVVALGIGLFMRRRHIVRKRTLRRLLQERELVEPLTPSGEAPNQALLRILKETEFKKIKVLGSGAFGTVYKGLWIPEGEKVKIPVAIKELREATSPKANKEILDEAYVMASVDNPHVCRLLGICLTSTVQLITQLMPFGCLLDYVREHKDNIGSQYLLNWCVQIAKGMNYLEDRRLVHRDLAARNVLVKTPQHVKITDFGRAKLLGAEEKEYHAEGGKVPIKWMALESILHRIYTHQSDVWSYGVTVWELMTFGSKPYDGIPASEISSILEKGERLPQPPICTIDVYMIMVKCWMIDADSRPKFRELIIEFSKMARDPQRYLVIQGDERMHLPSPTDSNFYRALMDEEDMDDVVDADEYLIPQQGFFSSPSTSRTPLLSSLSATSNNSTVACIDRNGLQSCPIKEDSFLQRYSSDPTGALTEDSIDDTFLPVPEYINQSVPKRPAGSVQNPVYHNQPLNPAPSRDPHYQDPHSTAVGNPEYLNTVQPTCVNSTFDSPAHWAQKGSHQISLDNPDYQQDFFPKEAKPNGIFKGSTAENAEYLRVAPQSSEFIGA
Kind of test: Biochemical EGFR inhibition assay (Caliper mobility shift), EGFR L858R. Particulars: biochemical Caliper mobility shift assay, EGFR L858R enzyme; read-out: Enz EGFR L858R IC50. In a few lines:
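Apparent IC50 from Caliper separation of phospho-peptide from substrate. Conditions: 2.5 µM 5-FAM peptide, 1.0 mM ATP or ATP Km, pH 7.5 HEPES buffer, room temperature, 10–20% conversion, EDTA stop.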

Each structure is given as a SMILES string.

intracellular phosphorylation of EGFR (Tyr1068) in PC-9 cells, sequence (P00533 with tags, fused parts or gaps DEL746-750): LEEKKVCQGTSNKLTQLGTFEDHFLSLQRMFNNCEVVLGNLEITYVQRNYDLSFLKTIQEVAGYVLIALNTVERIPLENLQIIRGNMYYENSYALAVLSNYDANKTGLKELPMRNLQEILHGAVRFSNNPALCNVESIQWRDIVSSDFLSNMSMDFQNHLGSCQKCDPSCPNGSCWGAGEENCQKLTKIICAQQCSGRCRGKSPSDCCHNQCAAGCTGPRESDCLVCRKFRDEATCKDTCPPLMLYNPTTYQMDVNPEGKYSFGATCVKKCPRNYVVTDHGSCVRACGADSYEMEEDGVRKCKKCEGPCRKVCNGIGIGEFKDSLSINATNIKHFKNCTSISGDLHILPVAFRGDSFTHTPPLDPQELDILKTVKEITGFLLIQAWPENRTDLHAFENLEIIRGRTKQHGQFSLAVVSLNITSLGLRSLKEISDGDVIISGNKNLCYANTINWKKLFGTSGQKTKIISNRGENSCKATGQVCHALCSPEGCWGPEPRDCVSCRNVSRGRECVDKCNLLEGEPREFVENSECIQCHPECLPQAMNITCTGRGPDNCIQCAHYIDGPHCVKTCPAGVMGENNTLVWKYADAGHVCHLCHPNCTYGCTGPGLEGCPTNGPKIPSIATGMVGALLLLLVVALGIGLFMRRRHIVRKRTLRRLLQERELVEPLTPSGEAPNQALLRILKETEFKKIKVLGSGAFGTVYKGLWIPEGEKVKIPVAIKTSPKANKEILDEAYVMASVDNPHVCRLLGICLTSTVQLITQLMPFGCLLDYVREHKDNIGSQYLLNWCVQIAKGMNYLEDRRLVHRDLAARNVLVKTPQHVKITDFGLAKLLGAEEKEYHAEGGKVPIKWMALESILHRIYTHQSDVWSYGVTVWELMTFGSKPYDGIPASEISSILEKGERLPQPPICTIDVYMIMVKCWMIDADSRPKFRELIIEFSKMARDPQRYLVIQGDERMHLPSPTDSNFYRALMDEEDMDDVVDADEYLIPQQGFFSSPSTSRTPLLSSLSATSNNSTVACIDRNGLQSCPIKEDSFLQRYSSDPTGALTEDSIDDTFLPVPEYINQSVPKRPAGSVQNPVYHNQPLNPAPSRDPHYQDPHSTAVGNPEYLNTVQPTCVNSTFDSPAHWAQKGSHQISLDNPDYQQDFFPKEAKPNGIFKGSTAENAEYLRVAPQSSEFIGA

As a reminder, the IC50 is the point on the concentration scale where inhibition reaches its midpoint. On to `CN(C)[C@H]1CC[C@H]1Oc1cc(-c2cnn(C)c2)cc2ncnc(Nc3ccc4ncsc4c3)c12` (racemic) [Example A50, N-(5-((1R,2S)-2-(dimethylamino)cyclobutoxy)-7-(1-methyl-1H-pyrazol-4-yl)quinazolin-4-yl)benzo[d]thiazol-6-amine], for which the IC50 (in test [1]; on EGFR (d746-750); on EGFR L858R) was no more than 10 nM throughout.
Take `C[C@@H](Oc1cc(-c2cnn(C)c2)cc2ncnc(Nc3ccc4ncsc4c3)c12)C(CO)CN(C)C` (mixture of isomers) [Example A55, rac-(3R)-3-((4-(benzo[d]thiazol-6-ylamino)-7-(1-methyl-1H-pyrazol-4-yl)quinazolin-5-yl)oxy)-2-((dimethylamino)methyl)butan-1-ol]: the IC50 (in test [1]; on EGFR (d746-750); on EGFR L858R) was no more than 10 nM in each case.
With `Cn1cc(-c2cc(OC3CCCOC3)c3c(Nc4ccc5ncsc5c4)ncnc3c2)cn1` (single isomer, unassigned) [Example 6], the IC50 (in test [1]; on EGFR (d746-750); at EGFR L858R) was no more than 10 nM each time.
In the case of `Cn1cc(-c2cc(OC3CCCOC3)c3c(Nc4ccc5ncsc5c4)ncnc3c2)cn1` (single isomer, unassigned) [Example 7], the IC50 was 10.1 to 50 nM in test [1], no more than 10 nM on EGFR (d746-750) and no more than 10 nM on EGFR L858R.
As to `CN1CC[C@H](Oc2cc(-c3cnn(C)c3)cc3ncnc(Nc4ccc5ncsc5c4)c23)C1=O` (single isomer, unassigned) [Example 23], the IC50 (in test [1]; on EGFR (d746-750); on EGFR L858R) was no more than 10 nM in each case.
In the case of `CN1CC[C@H](Oc2cc(-c3cnn(C)c3)cc3ncnc(Nc4ccc5ncsc5c4)c23)C1=O` (single isomer, unassigned) [Example 24], the results for the IC50 (in test [1]; at EGFR (d746-750); at EGFR L858R) were 10.1 to 50 nM, no more than 10 nM and no more than 10 nM, respectively.
For `Cn1cc(-c2cc(OCC3CCOC3)c3c(Nc4ccc5ncsc5c4)ncnc3c2)cn1` (single isomer, unassigned) [Example 41], the IC50 is 10.1 to 50 nM in test [1], no more than 10 nM on EGFR (d746-750) and no more than 10 nM at EGFR L858R.
For the compound `Cn1cc(-c2cc(O[C@@H]3CCOC[C@@H]3F)c3c(Nc4ccc5ncsc5c4)ncnc3c2)cn1` (single isomer, unassigned) [Example 43], the IC50 in test [1] is 10.1 to 50 nM; at EGFR (d746-750), no more than 10 nM; on EGFR L858R it was no more than 10 nM.
For the compound `Cn1cc(-c2cc(O[C@H]3CCOC[C@@H]3F)c3c(Nc4ccc5ncsc5c4)ncnc3c2)cn1` (single isomer, unassigned) [Example 45], the IC50 in test [1] is 10.1 to 50 nM; at EGFR (d746-750), no more than 10 nM; on EGFR L858R, no more than 10 nM.
As for `Cn1cc(-c2cc(O[C@H]3CCOC[C@@H]3F)c3c(Nc4ccc5ncsc5c4)ncnc3c2)cn1` (single isomer, unassigned) [Example 46], the IC50 (in test [1]; on EGFR (d746-750); on EGFR L858R) was no more than 10 nM throughout.
As to `CN1CCC[C@@H](Oc2cc(-c3cnn(C)c3)cc3ncnc(Nc4ccc5ncsc5c4)c23)C1` (single isomer, unassigned) [Example 47], the IC50 in test [1] is 10.1 to 50 nM; at EGFR (d746-750) it was no more than 10 nM; on EGFR L858R, no more than 10 nM.
`C[C@@H](Oc1cc(-c2cnn(C)c2)cc2ncnc(Nc3ccc4ncsc4c3)c12)C(F)F` (single isomer, unassigned) [Example 52]: the IC50 (in test [1]; on EGFR (d746-750); at EGFR L858R) was no more than 10 nM each time.
On to `CN1CC[C@@](C)(COc2cc(-c3cnn(C)c3)cc3ncnc(Nc4ccc5ncsc5c4)c23)C1=O` (single isomer, unassigned) [Example 55], for which the IC50 in test [1] was 10.1 to 50 nM; on EGFR (d746-750), no more than 10 nM; on EGFR L858R, no more than 10 nM.
For `CCN1CC[C@H](Oc2cc(-c3cnn(C)c3)cc3ncnc(Nc4ccc5ncsc5c4)c23)C1=O` (single isomer, unassigned) [Example 59, (S)-3-((4-(benzo[d]thiazol-6-ylamino)-7-(1-methyl-1H-pyrazol-4-yl)quinazolin-5-yl)oxy)-1-ethylpyrrolidin-2-one or (R)-3-((4-(benzo[d]thiazol-6-ylamino)-7-(1-methyl-1H-pyrazol-4-yl)quinazolin-5-yl)oxy)-1-ethylpyrrolidin-2-one], the IC50 (in test [1]; at EGFR (d746-750); on EGFR L858R) was no more than 10 nM each time.
For `CCN1CC[C@H](Oc2cc(-c3cnn(C)c3)cc3ncnc(Nc4ccc5ncsc5c4)c23)C1=O` (single isomer, unassigned) [Example 60, (S)-3-((4-(benzo[d]thiazol-6-ylamino)-7-(1-methyl-1H-pyrazol-4-yl)quinazolin-5-yl)oxy)-1-ethylpyrrolidin-2-one or (R)-3-((4-(benzo[d]thiazol-6-ylamino)-7-(1-methyl-1H-pyrazol-4-yl)quinazolin-5-yl)oxy)-1-ethylpyrrolidin-2-one], the IC50 was 10.1 to 50 nM in test [1], no more than 10 nM at EGFR (d746-750) and no more than 10 nM on EGFR L858R.
On to `CC(C)N1CC[C@@H](Oc2cc(-c3cnn(C)c3)cc3ncnc(Nc4ccc5ncsc5c4)c23)C1=O` (single isomer, unassigned) [Example 63], for which the IC50 (in test [1]; on EGFR (d746-750); at EGFR L858R) was no more than 10 nM throughout.
For the compound `CC(C)N1CC[C@@H](Oc2cc(-c3cnn(C)c3)cc3ncnc(Nc4ccc5ncsc5c4)c23)C1=O` (single isomer, unassigned) [Example 64], the figures for the IC50 (in test [1]; on EGFR (d746-750); at EGFR L858R) were 10.1 to 50 nM, no more than 10 nM and no more than 10 nM, respectively.
With `C[C@H](Oc1cc(-c2cnn(C)c2)cc2ncnc(Nc3ccc4ncsc4c3F)c12)C1COC1` (single isomer, unassigned) [Example 71, (S)-7-fluoro-N-(7-(1-methyl-1H-pyrazol-4-yl)-5-(1-(oxetan-3-yl)ethoxy)quinazolin-4-yl)benzo[d]thiazol-6-amine or (R)-7-fluoro-N-(7-(1-methyl-1H-pyrazol-4-yl)-5-(1-(oxetan-3-yl)ethoxy)quinazolin-4-yl)benzo[d]thiazol-6-amine], the IC50 (in test [1]; on EGFR (d746-750); on EGFR L858R) was no more than 10 nM each time.
Turning to `CN1CC[C@H](Oc2cc(-c3cnn(C)c3)cc3ncnc(Nc4ccc5ncsc5c4F)c23)C1=O` (single isomer, unassigned) [Example 72], the IC50 (in test [1]; on EGFR (d746-750); at EGFR L858R) was no more than 10 nM in each case.
On to `CN1CC[C@H](Oc2cc(-c3cnn(C)c3)cc3ncnc(Nc4ccc5ncsc5c4F)c23)C1=O` (single isomer, unassigned) [Example 73], for which the IC50 in test [1] was 10.1 to 50 nM; on EGFR (d746-750), no more than 10 nM; on EGFR L858R, no more than 10 nM.
For `COc1nn(C)cc1-c1cc(O[C@H]2CCN(C)C2=O)c2c(Nc3ccc4ncsc4c3)ncnc2c1` (single isomer, unassigned) [Example 74], the IC50 in test [1] was 10.1 to 50 nM; on EGFR (d746-750) it was no more than 10 nM; at EGFR L858R, no more than 10 nM.
With `COc1nn(C)cc1-c1cc(O[C@H]2CCN(C)C2=O)c2c(Nc3ccc4ncsc4c3)ncnc2c1` (single isomer, unassigned) [Example 75], the IC50 (in test [1]; on EGFR (d746-750); at EGFR L858R) was no more than 10 nM throughout.
